Results on 9 molecules are retold here after patent US10357481B2 (MERCK SHARP & DOHME CORP., priority 2015, dated 2019).

pKi: −log10 of the molar value. Read-outs that look alike come from different tables or passages of the source.

In general, Ki refers to the equilibrium dissociation constant of an inhibitor or competing ligand from its target. Usually pKi stands for the Ki on a negative log10 scale, so that one unit is a factor of ten.

The target of one data set is T1, Rhesus PDE2A3 (Macaca mulatta, UniProt B3VTJ2).
T1 construct: made in house; host or cells: AD293 cells, transiently transfected with pcDNA3.3-TOPO; lysate supernatant used
T1 sequence (B3VTJ2 1-941): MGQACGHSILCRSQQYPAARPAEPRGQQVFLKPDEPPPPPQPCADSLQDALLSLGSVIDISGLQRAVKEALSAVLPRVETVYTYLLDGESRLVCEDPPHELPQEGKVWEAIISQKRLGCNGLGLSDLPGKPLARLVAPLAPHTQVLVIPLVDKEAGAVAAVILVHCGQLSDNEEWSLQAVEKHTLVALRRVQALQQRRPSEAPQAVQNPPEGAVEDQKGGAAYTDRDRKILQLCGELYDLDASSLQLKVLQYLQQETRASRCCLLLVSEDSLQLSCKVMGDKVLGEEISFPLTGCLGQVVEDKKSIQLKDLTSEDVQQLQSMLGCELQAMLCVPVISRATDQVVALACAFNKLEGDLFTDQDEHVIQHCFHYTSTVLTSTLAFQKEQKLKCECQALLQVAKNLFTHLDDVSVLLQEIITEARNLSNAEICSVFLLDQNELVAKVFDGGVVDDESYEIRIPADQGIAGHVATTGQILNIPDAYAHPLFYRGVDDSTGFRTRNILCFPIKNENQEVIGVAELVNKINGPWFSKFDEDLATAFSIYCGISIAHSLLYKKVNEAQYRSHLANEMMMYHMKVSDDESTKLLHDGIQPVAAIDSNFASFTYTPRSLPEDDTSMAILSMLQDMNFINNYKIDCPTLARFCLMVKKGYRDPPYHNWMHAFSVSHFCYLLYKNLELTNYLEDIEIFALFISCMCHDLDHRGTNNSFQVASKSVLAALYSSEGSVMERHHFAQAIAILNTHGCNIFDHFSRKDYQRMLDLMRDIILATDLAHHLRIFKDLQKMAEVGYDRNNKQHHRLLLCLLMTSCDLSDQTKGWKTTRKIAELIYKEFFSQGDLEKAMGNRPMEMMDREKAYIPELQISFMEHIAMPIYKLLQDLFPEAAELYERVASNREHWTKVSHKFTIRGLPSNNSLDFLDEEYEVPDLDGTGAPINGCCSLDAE
Nature of the data set: PDE2 fluorescence polarization (IMAP FP) inhibition assay, rhesus PDE2A3. In kind it is biochemical, rhesus macaque. On the procedure: The activity of the compounds in accordance with the present invention as PDE2 inhibitors may be readily determined using a fluorescence polarization (FP) methodology (Huang, W., et al., J. Biomol Screen, 2002, 7: 215).
In a typical experiment the PDE2 inhibitory activity of the compounds of the present invention was determined in accordance with the following experimental method. Rhesus PDE2A3 was amplified from rhesus macaque brain cDNA (Biochain Institute, Hayward, Calif.) using primers based on human PDE2A sequence (accession NM_002599.3) where the forward primer containing a Kozak consensus was 5′-[…]-3′ and the reverse primer was 5′-[…]-3′. Amplification with Easy-A High-Fidelity PCR cloning enzyme (Stratagene, La Jolla, Calif.) was 95° C. for 2 minutes followed by thirty three cycles of 95° C. for 40 seconds, 52° C. for 30 seconds, and 72° C. for 2 minutes 48 seconds. Final extension was 72° C. for 7 minutes. The PCR product was TA cloned into pcDNA3.3-TOPO (Invitrogen, Carlsbad, Calif.) aaccording to standard protocol. A consensus sequence was developed from multiple clones and then deposited into GenBank (EU812167). AD293 cells (Stratagene, La Jolla, Calif.) with 70-80% confluency were transiently transfected with rhesus PDE2A3/pcDNA3.3-TOPO using Lipofectamine 2000 according to manufacturer specifications (Invitrogen, Carlsbad, Calif.). Cells were harvested 48 hours post-transfection and lysed by sonication (setting 3, 10×5 sec pulses) in a buffer containing 20 mM HEPES pH 7.4, 1 mM EDTA and Complete Protease Inhibitor Cocktail Tablets (Roche, Indianapolis, Ind.). Lysate was collected by centrifugation at 75,000×g for 20 minutes at 4° C. and supernatant utilized for evaluation of PDE2 activity. The fluorescence polarization assay for cyclic nucleotide phosphodiesterases was performed using an IMAP® FP kit supplied by Molecular Devices, Sunnyvale, Calif. (product # R8139). […] Assays were performed at room temperature in 384-well microtiter plates with an incubation volume of 20.2 μL. Solutions of test compounds were prepared in DMSO and serially diluted with DMSO to yield 8 μL of each of 10 solutions differing by 3-fold in concentration, at 32 serial dilutions per plate. […] 0% of inhibition is determined by using DMSO (1% final concentrations).
A Labcyte Echo 555 (Labcyte, Sunnyvale, Calif.) is used to dispense 200 nL from each well of the titration plate to the 384 well assay plate. Ten microliters of a solution of enzyme (1/2000 final dilution from aliquots; sufficient to produce 20% substrate conversion) was added to the assay plate. Next 10 uL of a separate solution of the substrate FAM-labeled cAMP (50 nM final concentration product # R7506 from Molecular Devices) and the activator cGMP (1 uM final concentration), prepared in the assay buffer (10 mM Tris HCl, pH 7.2, 10 mM MgCl2, 0.05% NaN3 0.01% Tween-20, and 1 mM DTT) was added to the assay plate and shaken to mix. The reaction is allowed to proceed at room temperature for 60 minutes. A binding solution is then made from the kit components, comprised of 80% Solution A, 20% Solution B and binding reagent at a volume of 1/600 the total binding solution. The enzymatic reaction is stopped by addition of 60 μL of the binding solution to each well of the assay plates and the plates are sealed and shaken for 30 seconds. The plate was incubated at room temperature for at least one hour prior to determining the fluorescence polarization (FP). The parallel and perpendicular fluorescence of each well of the plate was measured using a Tecan Genios Pro plate reader (Tecan, Switzerland) or Perkin Elmer EnVision™ plate reader (Waltham, Mass.). Fluorescence polarization (mP) was calculated from the parallel (S) and perpendicular (P) fluorescence of each sample well and the analogous values for the median control well, containing only substrate (So and Po), using the following equation: Polarization (mP)=1000*(S/So−P/Po)/(S/So+P/Po).
In general terms: In fluorescence polarisation assays a small probe gives low polarisation when free and higher when bound to something large.

Another data set concerns the target T2, human PDE2A1 (Homo sapiens, UniProt O00408).
T2 construct: GST; purchased BPS Bioscience (San Diego, Calif.) 60020; host or cells: insect cells
Nature of the data set: IMAP FP PDE selectivity panel, human PDE2A1. The format is biochemical. Put shortly:
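IMAP FP read-out, run at room temperature in parallel with PDE1–11: enzyme at 20% substrate conversion, 50 nM FAM-cAMP containing 1000 nM cGMP, Tris pH 7.2/MgCl2/DTT buffer. Compounds as ten 3-fold dilutions. Reaction 60 min, stopped with binding reagent for 1 h before polarization measurement.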

Another data set deals with other PDE isoforms. As to conditions: reported in Annual Reports in Medicinal Chemistry 42: 4-5, 2007; cited from earlier work.
For data set [1] the following is noted: reported in Annual Reports in Medicinal Chemistry 42: 4-5, 2007; cited from earlier work.
[2] abbreviates: Lab B, read-out: Rhesus PDE2 Ki (nM) Lab B.
Setting [3] is: Lab A, read-out: Rhesus PDE2 Ki (nM) Lab A.

T2 sequence (O00408 1-920 isoform O00408-2): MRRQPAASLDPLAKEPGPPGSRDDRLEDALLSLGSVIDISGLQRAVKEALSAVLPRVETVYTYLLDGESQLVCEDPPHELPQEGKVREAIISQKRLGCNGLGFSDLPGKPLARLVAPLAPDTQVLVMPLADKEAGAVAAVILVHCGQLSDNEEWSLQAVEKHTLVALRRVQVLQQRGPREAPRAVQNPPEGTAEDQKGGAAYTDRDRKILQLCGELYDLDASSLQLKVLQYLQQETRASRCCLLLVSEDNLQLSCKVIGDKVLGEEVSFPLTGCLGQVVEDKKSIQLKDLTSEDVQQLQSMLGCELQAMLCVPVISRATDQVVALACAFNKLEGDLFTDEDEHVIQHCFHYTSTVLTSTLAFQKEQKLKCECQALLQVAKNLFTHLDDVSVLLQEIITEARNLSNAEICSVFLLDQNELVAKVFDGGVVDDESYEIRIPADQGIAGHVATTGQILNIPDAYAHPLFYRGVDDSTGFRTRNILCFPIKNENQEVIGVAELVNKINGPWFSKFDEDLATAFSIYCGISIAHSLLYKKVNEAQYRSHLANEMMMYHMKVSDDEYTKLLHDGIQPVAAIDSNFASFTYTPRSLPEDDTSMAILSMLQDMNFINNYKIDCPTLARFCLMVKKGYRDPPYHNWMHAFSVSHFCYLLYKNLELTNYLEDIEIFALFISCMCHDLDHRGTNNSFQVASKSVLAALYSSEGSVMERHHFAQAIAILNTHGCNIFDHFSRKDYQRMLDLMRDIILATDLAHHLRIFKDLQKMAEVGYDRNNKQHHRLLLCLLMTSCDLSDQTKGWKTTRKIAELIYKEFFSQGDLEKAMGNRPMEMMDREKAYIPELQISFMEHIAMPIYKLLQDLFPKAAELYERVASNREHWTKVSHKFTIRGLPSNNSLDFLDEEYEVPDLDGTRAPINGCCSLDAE

As to `Cc1cc(N[C@@H](c2ccc(OC(F)(F)F)c(F)c2)C(C)(C)O)n2ncnc2n1` (single isomer, unassigned) [Example 92], the values for the inhibition constant Ki on Rhesus PDE2A3 (setting [2]) and on human PDE2A1 (Human PDE2 Ki (nM) Lab B) were 6.8 nM and 5.4 nM, respectively.
As for `Cc1cc(NC(c2ccc(S(F)(F)(F)(F)F)cc2)C(C)(C)O)n2ncnc2n1` (single isomer, unassigned) [Example 117, (1R or S)-2-Methyl-1-[(5-methyl[1,2,4]triazolo[1,5-a]pyrimidin-7-yl)amino]-1-[4-(pentafluoro-λ^6-sulfanyl)phenyl] propan-2-ol], the inhibitory constant (Ki) is 5.6 nM at Rhesus PDE2A3 (setting [2]) and 4.6 nM on human PDE2A1 (Human PDE2 Ki (nM) Lab B).
Regarding `COc1ccc(Cc2nn3c([C@@H](CCCc4ccccc4)[C@@H](C)O)nc(C)c3c(=O)[nH]2)cc1OC` [BAY 60-7550], the “potency at other PDE isoforms” value in the data set with other PDE isoforms is on record as “significant potency”. In addition, the brain penetration entry in data set [1] is given as “limited”.
In the case of `Cc1cc(NC2(c3ccc(C(F)(F)F)cc3)CC2)n2ncnc2n1` [Example 56, 5-Methyl-N-{1-[4-(trifluoromethyl)phenyl]cyclopropyl}[1,2,4]triazolo[1,5-a]pyrimidin-7-amine], the figures for the Ki at Rhesus PDE2A3 (setting [2]) and on human PDE2A1 (Human PDE2 Ki (nM) Lab B) were 61 nM and 79 nM, respectively.
With `Cc1cc(NC2(c3ccc(C(F)(F)F)c(F)c3)CC2)n2ncnc2n1` [Example 57, N-{1-[3-Fluoro-4-(trifluoromethyl)phenyl]cyclopropyl}-5-methyl [1,2,4]triazolo[1,5-a]pyrimidin-7-amine], the Ki on Rhesus PDE2A3 (setting [2]) is 22 nM; at human PDE2A1 (Human PDE2 Ki (nM) Lab B), 21 nM.
`CCc1cc(NC2(c3ccc(C(F)(F)F)c(F)c3)CC2)n2ncnc2n1` [Example 68, 5-Ethyl-N-{1-[3-fluoro-4-(trifluoromethyl)phenyl]cyclopropyl}[1,2,4]triazolo[1,5-a]pyrimidin-7-amine] had a pKi on Rhesus PDE2A3 of 7.54. The Ki at human PDE2A1 (Lab B, read-out: Human PDE2 Ki (nM) Lab B) turned out to be 35 nM.
Turning to `CC(Nc1ccnc2ncnn12)c1ccc(C(F)(F)F)cc1` (stereo not shown) [Example 83, N-{1-[4-(Trifluoromethyl)phenyl]ethyl}[1,2,4]triazolo[1,5-a]pyrimidin-7-amine], the Ki on Rhesus PDE2A3 (setting [3]) amounted to 4680 nM.
Same read-out and setting: the value for `CC(Nc1ccnc2ncnn12)c1ccc(OC(F)(F)F)cc1` (stereo not shown) [Example 84, N-{1-[4-(Trifluoromethoxy)phenyl]ethyl}[1,2,4]triazolo[1,5-a]pyrimidin-7-amine] was 2770 nM.
Turning to `Cc1cc(N[C@@H](c2ccc(C(F)(F)F)c(F)c2)C(C)(C)O)n2ncnc2n1` [Example 98, (1S)-1-[3-Fluoro-4-(trifluoromethyl)phenyl]-2-methyl-1-[(5-methyl [1,2,4]triazolo[1,5-a]pyrimidin-7-yl)amino]propan-2-ol], the figures for the Ki on Rhesus PDE2A3 (setting [2]) and on human PDE2A1 (Human PDE2 Ki (nM) Lab B) were 12 nM and 10 nM, respectively.
